Experimental data reported in patent US5368707A, “Convenient determination of trace lead in whole blood and other fluids” (priority 1993, dated 1994).

What was measured:
Type in all cases: biochemical, pig
isocitrate dehydrogenase [1] = biological target: T1, isocitrate dehydrogenase (Sus scrofa, UniProt P33198); assay: Effect of pH on inhibition of isocitrate dehydrogenase by lead ion (Example 7); details: for Current / Inhibition: 1.0 U/mL enzyme, 50 mM Tris
T1 construct: purchased Sigma, St. Louis, Mo; ICD Type VI
T1 sequence (P33198 9-421): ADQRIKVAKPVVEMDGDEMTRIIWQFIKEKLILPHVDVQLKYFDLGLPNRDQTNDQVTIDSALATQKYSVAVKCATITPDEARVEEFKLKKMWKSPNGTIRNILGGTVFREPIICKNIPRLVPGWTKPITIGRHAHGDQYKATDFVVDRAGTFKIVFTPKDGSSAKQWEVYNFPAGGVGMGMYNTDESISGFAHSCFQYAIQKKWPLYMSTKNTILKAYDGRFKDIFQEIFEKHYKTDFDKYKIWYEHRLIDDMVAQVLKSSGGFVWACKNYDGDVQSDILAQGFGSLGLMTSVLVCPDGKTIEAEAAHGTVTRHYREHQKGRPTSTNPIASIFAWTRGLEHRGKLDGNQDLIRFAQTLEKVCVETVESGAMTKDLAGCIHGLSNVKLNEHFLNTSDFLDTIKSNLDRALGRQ
Experimental: The inventors have shown that less than 1 μg/dL of lead in solution may be measured employing the enzyme isocitrate dehydrogenase. The measurements are sensitive to several factors, including pH, enzyme concentration, co-factor concentration and temperature. The following example illustrates the effect of pH on enzyme inhibition.
Inhibition of the enzyme isocitrate dehydrogenase was calculated based on the amperometric signal (I) which is the mediator oxidation current measured with a glassy carbon electrode at an applied potential of +100 mV. Inhibition was determined as (Iuninhibited -Iinhibited)/Iuninhibited. 50 mM Tris buffer at various pH values as shown in Table 2 was used with 1.0 U/mL enzyme in the solution.

isocitrate dehydrogenase [2] = biological target: T1, isocitrate dehydrogenase; assay: ICDH inhibition by lead in the presence of CoSO4 (Example 8); details: 1 mM CoSO4
Experimental: A major problem in the measurement of lead in blood is the interference by various blood proteins and, as in the majority of clinical samples, the presence of excess amounts of EDTA. The inventors have discovered that lead chelated with EDTA is exchangeable with cobalt(II). As shown in this example, lead Pb(II) is displaced from EDTA by cobalt(II) and detected by its inhibition of isocitrate dehydrogenase (ICDH).
Micromolar concentrations of lead were determined through ICDH inhibition in the presence of 1 mM CoSO4.

isocitrate dehydrogenase [3] = biological target: T1, isocitrate dehydrogenase; assay: Amperometric ICDH activity with lead-containing whole blood samples
Excerpt: The present invention concerns approaches to and methods for determining lead ion levels in whole blood. […] Isocitrate dehydrogenase for example is inhibited by lead. […] This is likely due to binding of lead by blood proteins such as albumin or other proteins, although it is also possible that the enzyme is stabilized by an unidentified blood component.

## [Pb+2] [lead ion]
Isocitrate dehydrogenase [1]; pH 7.5, 5.5 μg/dL Pb
  Current: 749 nA
  Inhibition: 0%
Isocitrate dehydrogenase [1]; pH 7.5, 11.1 μg/dL Pb
  Current: 754 nA
  Inhibition: 0%
Isocitrate dehydrogenase [1]; pH 7.5, 16.6 μg/dL Pb
  Current: 760 nA
  Inhibition: -1%
Isocitrate dehydrogenase [1]; pH 7.5, 22.1 μg/dL Pb
  Current: 750 nA
  Inhibition: 0%
Isocitrate dehydrogenase [1]; pH 7.5, 27.6 μg/dL Pb
  Current: 761 nA
  Inhibition: -1%
Isocitrate dehydrogenase [1]; pH 7.5, 27.6 μg/dL lead
  Inhibition (in words): no significant inhibition
Isocitrate dehydrogenase [1]; pH 7.5, up to about 28 mg per deciliter lead (so in the source)
  Inhibition (in words): very little if any inhibition
Isocitrate dehydrogenase [1]; pH 8.0, 5.5 μg/dL Pb
  Current: 673 nA
  Inhibition: 6%
Isocitrate dehydrogenase [1]; pH 8.0, 11.1 μg/dL Pb
  Current: 613 nA
  Inhibition: 14%
Isocitrate dehydrogenase [1]; pH 8.0, 16.6 μg/dL Pb
  Current: 532 nA
  Inhibition: 25%
Isocitrate dehydrogenase [1]; pH 8.0, 22.1 μg/dL Pb
  Current: 439 nA
  Inhibition: 38%
Isocitrate dehydrogenase [1]; pH 8.0, 27.6 μg/dL Pb
  Current: 303 nA
  Inhibition: 58%
Isocitrate dehydrogenase [1]; pH 8, up to about 28 mg per deciliter lead (so in the source)
  enzyme inhibition: about 60%
Isocitrate dehydrogenase [1]; pH 8.5, 5.5 μg/dL Pb
  Current: 636 nA
  Inhibition: 18%
Isocitrate dehydrogenase [1]; pH 8.5, 11.1 μg/dL Pb
  Current: 522 nA
  Inhibition: 33%
Isocitrate dehydrogenase [1]; pH 8.5, 16.6 μg/dL Pb
  Current: 406 nA
  Inhibition: less than 50%
Isocitrate dehydrogenase [1]; pH 8.5, 16.6 μg/dL Pb, listed as Lead ion
  Inhibition: 48%
Isocitrate dehydrogenase [1]; pH 8.5, 22.1 μg/dL Pb
  Current: 241 nA
  Inhibition: 69%
Isocitrate dehydrogenase [1]; pH 8.5, 27.6 μg/dL Pb
  Current: 99 nA
Isocitrate dehydrogenase [1]; pH 8.5, 27.6 μg/dL Pb, listed as Lead ion
  Inhibition: 87%
Isocitrate dehydrogenase [1]; pH 8.5, 27.6 μg/dL Pb, listed as lead
  Inhibition: approximately 87%
Isocitrate dehydrogenase [1]; pH 8.5, up to about 28 mg per deciliter lead (so in the source)
  enzyme inhibition: about 90%
Isocitrate dehydrogenase [1]; pH 9.0, 5.5 μg/dL Pb
  Current: 4 nA
  Inhibition: 99%
Isocitrate dehydrogenase [1]; pH 9.0, 11.1 μg/dL Pb
  Current: 21 nA
  Inhibition: 98%
Isocitrate dehydrogenase [1]; pH 9.0, between 0 and 5.5 mg per deciliter lead (so in the source)
  Inhibition (in words): complete inhibition
Isocitrate dehydrogenase [1]; pH 9.0, up to 5.5 μg/dL lead
  Inhibition (in words): completely inhibited
Isocitrate dehydrogenase [2]; 2.4 μM lead
  Inhibition: 24%
Isocitrate dehydrogenase [2]; 4.8 μM lead
  Inhibition: 46%
Isocitrate dehydrogenase [2]; 12 μM lead
  Inhibition: 71%
Isocitrate dehydrogenase [3]
  inhibition of isocitrate dehydrogenase activity: do not detectably inhibit isocitrate dehydrogenase activity
